Tested on: corneal damage model (alkali burn)
Experiment: Corneal damage model (alkali burn) with NaOH: corneal edema and inflammatory cells (hematoxylin-eosin and F4/80 staining)
Type: in vivo, rat (Sprague Dawley)
Conditions: 0.1 mg/ml (0.01%) sulfasalazine, twice a day
Method: A white […] (Sprague Dawley, 300 g, male) was used as an animal, and a corneal damage model (alkali burn) due to a chemical drug using NaOH was used. A paper disk of 3 mm was dipped in a 0.1 N NaOH solution (50 ul), and the cornea was covered with the paper disk for 30 seconds to induce the cornea to be damaged. The inflammation reaction in the cornea was confirmed by performing hematoxylin eosin staining and immunostaining on the F4/80 antigen. The analysis of corneal edema was performed using a ratio of corneal epithelium and corneal stroma.
After the damage to the cornea, the solubilized sulfasalazine and the sulfasalazine-hyaluronic acid eye drop prepared in the Example 1 were administered twice a day, respectively. 0.1% hyaluronic acid was administered to the control group.
Three days after the damage to the cornea, the eyeball was removed and a paraffin block was prepared to make a tissue slice, and the hematoxylineosin staining and the immunostaining on the F4/80 antigen as a macrophage marker were performed.
The analysis on the inflammatory cells was performed with respect to the number of macrophages (F4/80 positive cells) present in the cornea.

SMILES: O=C(O)c1cc(/N=N/c2ccc(S(=O)(=O)Nc3ccccn3)cc2)ccc1O [sulfasalazine solution, sulfasalazine]
- number of macrophages (F4/80 positive cells) present in the cornea (after inducement of inflammation 31.5±4.9): 21.3±5.5
- ratio of corneal epithelium and stroma (corneal edema) (three days after damage, normal 4.6±1, after inducement of inflammation 10±2.5): 7.1±2.1

Source: patent US10279046B2, “Eye drop composition for treating ocular inflammatory disease and preparation method therefor” (CATHOLIC UNIVERSITY INDUSTRY-ACADEMIC COOPERATION FOUNDATION, priority 2013, dated 2019)
